In brackets after ≈: the same amount, converted by molar mass.
Tests used:
[1] = tested on: M. tuberculosis DRM167-8x3 (KasA I145T); type: cell-based, Mycobacterium tuberculosis
M. tuberculosis TDR116 = experiment: microbe, parasite or virus in culture; type: cell-based; details: Mycobacterium tuberculosis
M. tuberculosis DRM8.3 = experiment: microbe, parasite or virus in culture; type: cell-based; details: Mycobacterium tuberculosis
[2] = tested on: M. tuberculosis DRM167-8x2 (KasA A119T); type: cell-based, Mycobacterium tuberculosis
[3] = tested on: M. tuberculosis DRM167-16x6 (KasA I122S); type: cell-based, Mycobacterium tuberculosis
[4] = tested on: M. tuberculosis DRM167-32x11 (KasA G240S); type: cell-based, Mycobacterium tuberculosis
[5] = tested on: M. tuberculosis DRM167-32x2 (KasA P206T); type: cell-based, Mycobacterium tuberculosis
[6] = tested on: M. tuberculosis DRM167-8x6 (KasA M213L); type: cell-based, Mycobacterium tuberculosis
M. tuberculosis DRM5 = experiment: microbe, parasite or virus in culture; type: cell-based; details: Mycobacterium tuberculosis
[7] = tested on: M. tuberculosis DRM167-16x3 (KasA V123A); type: cell-based, Mycobacterium tuberculosis
M. tuberculosis TDR31 = experiment: microbe, parasite or virus in culture; type: cell-based; details: Mycobacterium tuberculosis
M. tuberculosis TDR36 = experiment: microbe, parasite or virus in culture; type: cell-based; details: Mycobacterium tuberculosis
M. tuberculosis mc^24914 = experiment: microbe, parasite or virus in culture; type: cell-based; details: Mycobacterium tuberculosis
[8] = tested on: mycolic acid biosynthesis in M. tuberculosis DRM167-32x2 (KasA P206T); type: cell-based, Mycobacterium tuberculosis

Row | SMILES | MIC [1] | MIC (M. tuberculosis TDR116) | MIC (M. tuberculosis DRM8.3) | MIC [2] | MIC [3] | MIC [4] | MIC [5] | MIC [6] | MIC (M. tuberculosis DRM5) | MIC [7] | MIC (M. tuberculosis TDR31) | MIC (M. tuberculosis TDR36) | MIC (M. tuberculosis mc^24914) | inhibition of mycolic acid biosynthesis [8] | frequency of resistant mutants (M. tuberculosis)
1 | NNC(=O)c1ccncc1 [INH, isoniazid] | 0.38 µM (≈ 0.0521 µg/mL) | > 12 µM | 0.4 µM (≈ 0.0549 µg/mL) | 0.38 µM (≈ 0.0521 µg/mL) | 0.19 µM (≈ 0.0261 µg/mL) | 0.19 µM (≈ 0.0261 µg/mL) | 0.19 µM (≈ 0.0261 µg/mL) | 0.38 µM (≈ 0.0521 µg/mL) | 0.4 µM (≈ 0.0549 µg/mL) | 0.38 µM (≈ 0.0521 µg/mL) | > 12 µM | > 12 µM | 1.6 µM (≈ 0.219 µg/mL) |  | 
2 | CC(C)=CCC/C(C)=C/CNCCNC1C2CC3CC(C2)CC1C3 (centres unmarked) [SQ109] | 0.8 µM (≈ 0.264 µg/mL) |  |  | 0.8 µM (≈ 0.264 µg/mL) | 0.4 µM (≈ 0.132 µg/mL) | 0.4 µM (≈ 0.132 µg/mL) | 0.4 µM (≈ 0.132 µg/mL) | 0.4 µM (≈ 0.132 µg/mL) |  | 0.8 µM (≈ 0.264 µg/mL) |  |  |  |  | 
3 | CCc1cc(C(N)=S)ccn1 [ETH, ethionamide] | 25 µM (≈ 4.16 µg/mL) |  |  | 12.5 µM (≈ 2.08 µg/mL) | 12.5 µM (≈ 2.08 µg/mL) | 12.5 µM (≈ 2.08 µg/mL) | 12.5 µM (≈ 2.08 µg/mL) | 25 µM (≈ 4.16 µg/mL) |  | 25 µM (≈ 4.16 µg/mL) |  |  |  |  | 
4 | COc1nc2ccc(Br)cc2cc1[C@@H](c1ccccc1)[C@@](O)(CCN(C)C)c1cccc2ccccc12 [BDQ, bedaquiline] | 1 µM (≈ 0.556 µg/mL) |  |  | 0.5 µM (≈ 0.278 µg/mL) | 0.5 µM (≈ 0.278 µg/mL) | 0.25 µM (≈ 0.139 µg/mL) | 0.12 µM (≈ 0.0667 µg/mL) | 0.5 µM (≈ 0.278 µg/mL) |  | 0.5 µM (≈ 0.278 µg/mL) |  |  |  |  | 
5 | COc1c(N2C[C@@H]3CCCN[C@@H]3C2)c(F)cc2c(=O)c(C(=O)O)cn(C3CC3)c12 [Moxi, moxifloxacin] | 0.03 µM (≈ 0.012 µg/mL) |  |  | 0.03 µM (≈ 0.012 µg/mL) | 0.03 µM (≈ 0.012 µg/mL) | 0.03 µM (≈ 0.012 µg/mL) | 0.03 µM (≈ 0.012 µg/mL) | 0.03 µM (≈ 0.012 µg/mL) |  | 0.03 µM (≈ 0.012 µg/mL) |  |  |  |  | 
6 | CC[C@@H](CO)NCCN[C@@H](CC)CO [EMB, ethambutol] | 1.56 µM (≈ 0.319 µg/mL) |  |  | 1.56 µM (≈ 0.319 µg/mL) | 1.56 µM (≈ 0.319 µg/mL) | 1.56 µM (≈ 0.319 µg/mL) | 1.56 µM (≈ 0.319 µg/mL) | 1.56 µM (≈ 0.319 µg/mL) |  | 1.56 µM (≈ 0.319 µg/mL) |  |  |  |  | 
7 | CCCCS(=O)(=O)Nc1ccc2cnn(C)c2c1 [DG167, N-(1-Methyl-1H-indazol-6-yl)butane-1-sulfonamide] | 6.25 µM (≈ 1.67 µg/mL) | 0.2 µM (≈ 0.0535 µg/mL) |  | 50 µM (≈ 13.4 µg/mL) | 50 µM (≈ 13.4 µg/mL) | 100 µM (≈ 26.7 µg/mL) | >100 µM | 3.12 µM (≈ 0.834 µg/mL) |  | 1.56 µM (≈ 0.417 µg/mL) | 0.2 µM (≈ 0.0535 µg/mL) |  | 0.78 µM (≈ 0.209 µg/mL) | resistant to DG167-mediated inhibition of mycolic acid biosynthesis | 1 × 10^−7
8 | O=[N+]([O-])c1cn2c(n1)OC[C@@H](OCc1ccc(OC(F)(F)F)cc1)C2 [PA824] | 0.1 µM (≈ 0.0359 µg/mL) |  |  | 0.1 µM (≈ 0.0359 µg/mL) | 0.1 µM (≈ 0.0359 µg/mL) | 0.1 µM (≈ 0.0359 µg/mL) | 0.1 µM (≈ 0.0359 µg/mL) | 0.1 µM (≈ 0.0359 µg/mL) |  | 0.1 µM (≈ 0.0359 µg/mL) |  |  |  |  | 
9 | CO[C@H]1/C=C/O[C@@]2(C)Oc3c(C)c(O)c4c(O)c(c(/C=N/N5CCN(C)CC5)c(O)c4c3C2=O)NC(=O)/C(C)=C\C=C\[C@H](C)[C@H](O)[C@@H](C)[C@@H](O)[C@@H](C)[C@H](OC(C)=O)[C@@H]1C [RIF, rifampin] | 0.002 µM (≈ 0.00165 µg/mL) |  |  | 0.001 µM (≈ 0.000823 µg/mL) | 0.001 µM (≈ 0.000823 µg/mL) | 0.001 µM (≈ 0.000823 µg/mL) | 0.001 µM (≈ 0.000823 µg/mL) | 0.001 µM (≈ 0.000823 µg/mL) |  | 0.001 µM (≈ 0.000823 µg/mL) |  |  |  |  | 

From article PMC6299220 (mBio, 2018)
